Where two headings read alike, the source gives them in different places.
Columns and labels:
human NaX-QTT [1] = target: T1, human NaX-QTT (Homo sapiens, UniProt Q01118, F724Q/I1189T/I1492T); test: Whole-cell patch clamp of HEK293T cells expressing NaX-QTT, effect of extracellular Ca^2+; format: cell-based
T1 construct: expressed in transfected cells; host or cells: Xenopus laevis oocytes injected with in vitro transcribed capped RNA
Protocol: (§1) FIGS. 5A-C show pharmacology of the human NaX-QTT channel. FIG. 5A, left and middle panels, show representative I-V currents from HEK293 cells expressing human NaX-QTT with indicated extracellular monovalent cations with or without indicated amounts of CaCl2 in the extracellular solution. Voltage ramp from −80 to +80 mV was applied.
HEK293T cells expressing NaX- or NaX-QTT-eGFP-2×FLAG were seeded on glass cover slips an hour before whole-cell patch-clamping experiments. For a more physiological condition (FIGS. 4D and 7B), the extracellular solution contained 150 mM NaCl, 5 mM KCl, 0.5 mM CaCl2, 1.2 mM MgCl2, 10 mM HEPES, and 13 mM D-(+)-glucose (pH 7.4) with NaOH, ˜320 mOsm/L, and the intracellular solution contained 140 mM CsCl, 10 mM CsF, 5 mM EGTA, 10 mM HEPES, and 2 mM Na2ATP (pH 7.2) with CsOH, ˜304 mOsm/L. To determine if NaX-QTT was cation-permeable, we first substituted all extracellular cations with NMDG^+ (FIG. 4E). Extracellular solution contained 150 mM NMDG and 10 mM HEPES (D-(+)-glucose was added accordingly to achieve osmolarity ˜325 mOsm/L and pH was adjusted to 7.4 with hydrochloric acid). To determine if NaX-QTT was anion-permeable, we substituted all Cl^− ions in both intra- and extracellular solutions with the large anion methanesulfonate (MS^−) (FIG. 15C). The extracellular solution contained 150 mM NaMS and 10 mM HEPES (D-(+)-glucose was added accordingly to achieve osmolarity ˜325 mOsm/L, and pH was adjusted to 7.4 with NaOH). […]
(§2) For data analysis, raw current traces were typically filtered using 8-pole Bessel low-pass filter at 500-800 Hz. […] For ion-selectivity experiments performed with Na^+ intracellular solution (FIGS. 4E and 5A), liquid junction potential (LJP) was measured with reference to the Na^+ intracellular solution and corrected after recording. Relative ion permeabilities (PNa/PX) were calculated using the equation PX/PNa=[Na^+]IC exp(ErevF/RT)/[X^+]EC (X=Na, K, Li or Cs), where F is Faraday's constant, R is the gas constant, […], and Erevs were measured from the −80- to +80-m V ramp (corrected for LJP).

human NaX-QTT [2] = target: T1, human NaX-QTT; test: Two-electrode voltage-clamp of Xenopus laevis oocytes expressing human NaX-QTT with blockers or multivalent cations; format: cell-based
Protocol: as §1
Oocytes were prepared as previously described^68. Healthy-looking stage V-VI oocytes were injected with 2.5-40 ng of RNA (in 5-41 nL) using a Nanoliter 2010 injector (World Precision Instruments). When excluding one or more construct, an equivalent volume of nuclease-free water was added to maintain a constant RNA concentration across different construct combinations. Injected oocytes were kept at 18° C., 140 rpm, in ND96 supplemented with 50 μg/mL gentamicin and 50 μg/mL tetracycline (in mM: 96 NaCl, 2 KCl, 1 MgCl2, 1.8 CaCl2), 2.5 sodium pyruvate, 0.5 theophylline, 5 HEPES; pH 7.4 with NaOH) for two to five days. Two-electrode voltage-clamp measurements were performed at room temperature using a Warner OC-725C Oocyte Clamp amplifier (Warner Instrument Corp, USA) and under constant perfusion with ND96 solution (in mM: 96 NaCl, 2 KCl, 1 MgCl2, 1.8 CaCl2, 5 HEPES; pH 7.4 with NaOH). For ion selectivity experiments, external solutions contained 115 mM of test cations as chloride salts, 1.2 mM CaCl2, 2 mM MgCl2, 5 mM HEPES (pH 7.4 with the corresponding hydroxide). Data acquisition was performed using a Digidata 1550 digitizer (Molecular devices; sampled at 10 kHz) and pCLAMP 10 software (Molecular Devices). Microelectrodes from borosilicate glass capillaries (Harvard Apparatus) were prepared to have resistances around 0.2-1.0 MQ2 using a P-1000 Flaming/Brown Micropipette Puller System (Sutter Instrument) and backfilled with 3 M KCl. Aconitine and veratridine (Alomone Labs) were dissolved in DMSO to make 50 mM stocks, and were further diluted to 300 and 100 μM in ND96 for electrophysiological experiments. Other NaV activators (Alomone Labs; FIGS. 8A-D) were dissolved in water to make stock solutions. The voltage dependence of ion current was determined using a protocol consisting of steps from a holding potential of 0 mV to voltages ranging from +80 to −100 mV for 1 s in 20 mV increment.

human NaX = target: T2, human NaX (Homo sapiens, UniProt Q01118); test: Two-electrode voltage-clamp of oocytes expressing human NaX with classical NaV channel activators; format: cell-based; conditions: different voltage-step protocols in oocytes; wild-type human NaX
T2 construct: expressed in transfected cells; host or cells: Xenopus laevis oocytes injected with in vitro transcribed capped RNA
Text: FIGS. 8A-D show functional evaluation of human NaX in Xenopus laevis oocytes. FIGS. 8A, left panel, and 8B, left panel, show representative currents from Xenopus laevis oocytes expressing human NaX with the indicated pharmacological modulator present in the extracellular solution. […] FIGS. 8C, left panel, and 8D, left panel, show representative currents from oocytes expressing human NaX with the indicated proteins co-expressed. FIG. 8C, right panel, show I-V plots with steps between +80 and −100 mV, in 20 mV increments, from a HP of 0 mV.
(§3) Oocytes were prepared as previously described^68. Healthy-looking stage V-VI oocytes were injected with 2.5-40 ng of RNA (in 5-41 nL) using a Nanoliter 2010 injector (World Precision Instruments). When excluding one or more construct, an equivalent volume of nuclease-free water was added to maintain a constant RNA concentration across different construct combinations. Injected oocytes were kept at 18° C., 140 rpm, in ND96 supplemented with 50 μg/mL gentamicin and 50 μg/mL tetracycline (in mM: 96 NaCl, 2 KCl, 1 MgCl2, 1.8 CaCl2), 2.5 sodium pyruvate, 0.5 theophylline, 5 HEPES; pH 7.4 with NaOH) for two to five days. […] The voltage dependence of ion current was determined using a protocol consisting of steps from a holding potential of 0 mV to voltages ranging from +80 to −100 mV for 1 s in 20 mV increment.

Xenopus laevis oocytes [3] = test: Current amplitude of Xenopus laevis oocytes expressing the constructs (function of construct); format: cell-based; conditions: voltage-step protocols
Protocol: (*p<0.05; **p<0.01; ****p<0.0001; one-way ANOVA, Dunnett's test against NaX.)
as §3, with “days. Two-electrode voltage-clamp measurements were performed at room temperature using a Warner OC-725C Oocyte Clamp amplifier (Warner Instrument Corp, USA) and under constant perfusion with ND96 solution (in mM: 96 NaCl, 2 KCl, 1 MgCl2, 1.8 CaCl2, 5 HEPES; pH 7.4 with NaOH). For ion selectivity experiments, external solutions contained 115 mM of test cations as chloride salts, 1.2 mM CaCl2, 2 mM MgCl2, 5 mM HEPES (pH 7.4 with the corresponding hydroxide).” for “days.”, “increment. […]” for “increment.”

HEK293T cells = test: Whole-cell patch clamp of HEK293T cells expressing NaX-QTT, reversal potential and ion selectivity; format: cell-based, human
Protocol: HEK293T cells expressing NaX- or NaX-QTT-eGFP-2×FLAG were seeded on glass cover slips an hour before whole-cell patch-clamping experiments. For a more physiological condition (FIGS. 4D and 7B), the extracellular solution contained 150 mM NaCl, 5 mM KCl, 0.5 mM CaCl2, 1.2 mM MgCl2, 10 mM HEPES, and 13 mM D-(+)-glucose (pH 7.4) with NaOH, ˜320 mOsm/L, and the intracellular solution contained 140 mM CsCl, 10 mM CsF, 5 mM EGTA, 10 mM HEPES, and 2 mM Na2ATP (pH 7.2) with CsOH, ˜304 mOsm/L. To determine if NaX-QTT was cation-permeable, we first substituted all extracellular cations with NMDG^+ (FIG. 4E). Extracellular solution contained 150 mM NMDG and 10 mM HEPES (D-(+)-glucose was added accordingly to achieve osmolarity ˜325 mOsm/L and pH was adjusted to 7.4 with hydrochloric acid). To determine if NaX-QTT was anion-permeable, we substituted all Cl^− ions in both intra- and extracellular solutions with the large anion methanesulfonate (MS^−) (FIG. 15C). The extracellular solution contained 150 mM NaMS and 10 mM HEPES (D-(+)-glucose was added accordingly to achieve osmolarity ˜325 mOsm/L, and pH was adjusted to 7.4 with NaOH). The intracellular solution contained 136 mM NaMS, 10 mM NaF, 5 mM EGTA, 10 mM HEPES, and 2 mM Na2ATP (pH 7.2 with NaOH, ˜309 mOsm/L). The extracellular NMDG solution contained 150 NMDG and 10 mM HEPES (D-(+)-glucose was added accordingly to achieve osmolarity ˜325 mOsm/L, and pH was adjusted to 7.4 with methanesulfonic acid).
For ion-selectivity experiments (FIGS. 4E and 5A) (i) involving monovalent cations, the extracellular solution contained 150 mM XCl, 10 mM HEPES, and D-(+)-glucose was added accordingly to achieve osmolarity ˜325 mOsm/L, and the pH was adjusted to 7.4 with XOH, where X indicates the cation of interest (Na^+, K^+, Li+ or Cs+); (ii) involving Ca^2+, the extracellular solution contained 110 mM CaCl2, 10 mM HEPES, and D-(+)-glucose was added accordingly to achieve osmolarity ˜325 mOsm/L, and the pH was adjusted to 7.4 with Ca(OH)2; (iii) the intracellular solution contained 136 mM NaCl, 10 mM NaF, 5 mM EGTA, 10 mM HEPES, and 2 mM Na2ATP (pH 7.2) with NaOH, ˜309 mOsm/L.
as §2

[4] = reported for pathogenic mutation; cited from earlier work
Xenopus laevis oocytes [5] = test: Voltage dependence of activation and steady-state inactivation of mutant NaV channels; format: cell-based; conditions: NaV1.7 mutant
[6] = 1 mM, oocytes, step from 0 to +80 mV
[7] = at concentrations up to 300 μM, oocytes

T1 sequence (Q01118 whole entry F724Q/I1189T/I1492T): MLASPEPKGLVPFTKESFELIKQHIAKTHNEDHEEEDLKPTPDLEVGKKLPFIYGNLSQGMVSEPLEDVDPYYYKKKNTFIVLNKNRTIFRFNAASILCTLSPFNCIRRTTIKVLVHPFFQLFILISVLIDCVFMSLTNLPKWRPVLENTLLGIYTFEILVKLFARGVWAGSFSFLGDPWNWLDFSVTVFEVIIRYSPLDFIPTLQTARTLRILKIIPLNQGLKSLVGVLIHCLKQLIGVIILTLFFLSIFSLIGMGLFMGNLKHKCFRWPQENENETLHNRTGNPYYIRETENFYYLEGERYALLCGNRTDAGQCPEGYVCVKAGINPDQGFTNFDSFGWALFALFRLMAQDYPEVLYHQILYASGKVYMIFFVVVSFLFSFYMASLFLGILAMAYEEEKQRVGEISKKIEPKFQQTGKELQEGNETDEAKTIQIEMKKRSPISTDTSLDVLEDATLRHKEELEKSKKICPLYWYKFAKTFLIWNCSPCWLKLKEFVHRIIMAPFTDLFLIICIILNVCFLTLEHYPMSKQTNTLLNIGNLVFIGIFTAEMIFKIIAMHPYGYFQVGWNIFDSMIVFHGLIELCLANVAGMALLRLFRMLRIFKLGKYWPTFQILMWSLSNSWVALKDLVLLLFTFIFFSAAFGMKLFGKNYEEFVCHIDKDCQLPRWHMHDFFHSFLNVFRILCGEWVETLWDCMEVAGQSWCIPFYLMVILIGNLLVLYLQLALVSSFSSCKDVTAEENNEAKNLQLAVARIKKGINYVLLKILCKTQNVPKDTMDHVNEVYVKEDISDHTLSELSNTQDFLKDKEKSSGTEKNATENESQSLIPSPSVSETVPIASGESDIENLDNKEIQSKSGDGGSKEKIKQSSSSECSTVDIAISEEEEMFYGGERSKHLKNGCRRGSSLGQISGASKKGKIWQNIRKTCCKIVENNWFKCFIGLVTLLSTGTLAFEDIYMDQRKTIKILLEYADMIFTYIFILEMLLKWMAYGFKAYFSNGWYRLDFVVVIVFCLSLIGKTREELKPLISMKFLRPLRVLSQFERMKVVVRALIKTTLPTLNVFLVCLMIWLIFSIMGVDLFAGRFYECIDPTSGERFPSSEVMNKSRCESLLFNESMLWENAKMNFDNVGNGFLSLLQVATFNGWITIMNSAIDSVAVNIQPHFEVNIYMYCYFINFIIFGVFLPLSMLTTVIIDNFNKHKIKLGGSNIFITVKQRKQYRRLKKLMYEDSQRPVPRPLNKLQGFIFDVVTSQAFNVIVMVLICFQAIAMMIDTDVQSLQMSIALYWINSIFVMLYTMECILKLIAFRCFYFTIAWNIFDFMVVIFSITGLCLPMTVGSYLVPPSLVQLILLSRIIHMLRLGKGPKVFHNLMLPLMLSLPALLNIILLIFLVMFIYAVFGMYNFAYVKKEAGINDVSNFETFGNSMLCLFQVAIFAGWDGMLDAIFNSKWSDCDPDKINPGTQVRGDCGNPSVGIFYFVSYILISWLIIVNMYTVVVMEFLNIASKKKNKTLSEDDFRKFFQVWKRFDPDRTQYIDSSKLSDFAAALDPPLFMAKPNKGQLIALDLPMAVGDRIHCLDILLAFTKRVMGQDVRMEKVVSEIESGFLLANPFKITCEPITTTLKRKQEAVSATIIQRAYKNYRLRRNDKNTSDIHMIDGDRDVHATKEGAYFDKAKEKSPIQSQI
T2 sequence (Q01118 whole entry): as the sequence (Q01118 whole entry F724Q/I1189T/I1492T) above, with Q724F, T1189I, T1492I counted along it

[Ca+2] [Ca^2+]
permeation through NaX-QTT (human NaX-QTT [1]; HEK293T cells, extracellular CaCl2): does not permeate | potency of extracellular Ca^2+ block on NaX relative to traditional NaV channels (human NaX-QTT [1]; NaX-QTT versus NaV channels): ~10 fold | inhibition of the outward Na^+ current (human NaX-QTT [1]; extracellular Ca^2+ 1 mM, HEK293T cells, NaX-QTT, at 80 mV): ~70%

[Co+2] [Co^2+]
inhibition of NaX-QTT currents (human NaX-QTT [2]; [6]): inhibited

[Gd+3] [Gd^3+]
inhibition of NaX-QTT currents compared with Zn^2+ and Co^2+ (human NaX-QTT [2]; trivalent cation, oocytes): more potent

[Zn+2] [Zn^2+]
inhibition of NaX-QTT currents (human NaX-QTT [2]; [6]): inhibited

CCN1C[C@]2(COC)[C@H](O)C[C@H](OC)[C@@]34[C@@H]5C[C@@]6(O)[C@H](OC(=O)c7ccccc7)[C@@H]5[C@@](OC(C)=O)([C@@H]([C@H](OC)[C@H]23)[C@@H]14)[C@@H](O)[C@@H]6OC [aconitine]
activation of human NaX-mediated currents (human NaX): did not invoke any clear human NaX-mediated currents

O=C(NCC1CCCCN1)c1cc(OCC(F)(F)F)ccc1OCC(F)(F)F (centres unmarked) [flecainide]
inhibition of NaX-QTT currents (human NaX-QTT [2]; [7]): strong inhibitory effects were not observed

CN(C)C(=O)C(CCN1CCC(O)(c2ccc(Cl)cc2)CC1)(c1ccccc1)c1ccccc1 [loperamide]
inhibition of NaX-QTT currents (human NaX-QTT [2]): equally potent inhibitors

O=C1NC(=O)C(c2ccccc2)(c2ccccc2)N1 [phenytoin]
inhibition of NaX-QTT currents (human NaX-QTT [2]; [7]): strong inhibitory effects were not observed

C=C[C@H]1C[N@@]2CC[C@H]1C[C@@H]2[C@@H](O)c1ccnc2ccc(OC)cc12 [quinidine]
inhibition of NaX-QTT currents (human NaX-QTT [2]; at high μM concentrations, oocytes): equally potent inhibitors

COc1ccccc1OCC(O)CN1CCN(CC(=O)Nc2c(C)cccc2C)CC1 (centres unmarked) [ranolazine]
inhibition of NaX-QTT currents (human NaX-QTT [2]; [7]): strong inhibitory effects were not observed

NC1=N[C@H](O)[C@H]2[C@H]3O[C@]4(O)O[C@@H]([C@@H](O)[C@@]2(N1)[C@@H]4O)[C@]3(O)CO [tetrodotoxin]
inhibitory effect on NaX-QTT (human NaX-QTT [2]): inhibitory effects

Construct 24: triple-mutant NaX channel construct (F724Q-I1189T-I1492T) with polar substitutions at three S6-gate lining positions
ionic currents of the construct expressed alone (Xenopus laevis oocytes [3]): robust ionic currents | reversal potential (HEK293T cells; HEK293T cells, all extracellular cations replaced with NMDG): below −100 mV | reversal potential (HEK293T cells; HEK293T cells, physiological extracellular solution): +5 mV | discrimination between monovalent cations (HEK293T cells; extracellular monovalent cations 150 mM): does not effectively discriminate | reversal potential (HEK293T cells; symmetrical NaCl/NaCl, ramp −80 to +80 mV, 150 mM Na^+ intracellular): ~0 mV

Construct 25: L390E/I1189E/I1492E triple-mutant NaX channel construct
ionic currents of the construct expressed alone (Xenopus laevis oocytes [3]): much lower current amplitudes

Ser211Pro: pathogenic Ser211Pro mutation in NaV1.7
hyperpolarization of channel activation [4]: −12 mV

Ser1269Phe: Ser1269Phe substitution in NaV1.7
depolarizing shift of activation (Xenopus laevis oocytes [5]): ~8 mV

ΔLeu966: in-frame DII-S6 deletion in NaV1.7
hyperpolarization of activation (Xenopus laevis oocytes [5]): −16 mV

B1: Ser209Phe: pathogenic Ser209Phe mutation in KCNQ1 (protein, UniProt P51787 1-676, looked up, variant S209F)
Potassium voltage-gated …: MAAASSPPRAERKRWGWGRLPGARRGSAGLAKKCPFSLELAEGGPAGGALYAPIAPGAPGPAPPASPAAPAAPPVASDLGPRPPVSLDPRVSIYSTRRPVLARTHVQGRVYNFLERPTGWKCFVYHFAVFLIVLVCLIFSVLSTIEQYAALATGTLFWMEIVLVVFFGTEYVVRLWSAGCRSKYVGLWGRLRFARKPISIIDLIVVVAFMVVLCVGSKGQVFATSAIRGIRFLQILRMLHVDRQGGTWRLLGSVVFIHRQELITTLYIGFLGLIFSSYFVYLAEKDAVNESGRVEFGSYADALWWGVVTVTTIGYGDKVPQTWVGKTIASCFSVFAISFFALPAGILGSGFALKVQQKQRQKHFNRQIPAAASLIQTAWRCYAAENPDSSTWKIYIRKAPRSHTLLSPSPKPKKSVVVKKKKFKLDKDNGVTPGEKMLTVPHITCDPPEERRLDHFSVDGYDSSVRKSPTLLEVSMPHFMRTNSFAEDLDLEGETLLTPITHISQLREHHRATIKVIRRMQYFVAKKKFQQARKPYDVRDVIEQYSQGHLNLMVRIKELQRRLDQSIGKPSLFISVSEKSKDRGSNTIGARLNRVEDKVTQLDQRLALITDMLHQLLSLHGGSTPGSGGPPREGGAHITQPCGSGGSVDPELFLPSNTLPTYEQLTVPRRGPDEGS
hyperpolarization of channel activation [4]: −45 mV
